Assay results reported in PMC4793717 (Pharmacology, 2013).
Entries after “also recorded” stand apart in the source; their conditions may differ. Read-outs that look alike come from different tables or passages of the source. Each block holds one molecule with its values, some of them ahead of it.

Columns and labels:
Caco-2 = assay: In vitro Caco-2 permeability assay; assay type: in vitro ADME; conditions: test conc. 10 μmol/l, 2 h
TrkB [1] = molecular target: T1, TrkB (Mus musculus, UniProt P15209); assay: TrkB activation in mouse brain after oral gavage; assay type: in vivo, C57BL/6J mice; conditions: 5 mg/kg oral gavage, brain collected at 2 h
TrkB receptor [2] = molecular target: T2, TrkB receptor (Rattus norvegicus, UniProt Q63604); assay: TrkB activation in primary cortical neurons; assay type: cell-based; conditions: for TrkB activation in primary neurons (p-TrkB Y816): 500 nmol/l, 15 min, primary cortical neurons
mice [3] = conditions: cited from earlier work
Akt = assay: p-Akt ELISA of mouse brain samples; assay type: in vivo, C57BL/6J mice; conditions: for p-Akt versus control in entacapone-treated and tolcapone-treated groups (ELISA): COMT inhibitor 30 mg/kg pretreatment, flavonoid 5 mg/kg
TrkB [4] = molecular target: T1, TrkB; conditions: oral administration, at 2 or 4 h; cited from earlier work
TrkB receptor [5] = conditions: cited from earlier work
[6] = In vitro Caco-2 permeability assay; assay type: in vitro ADME; conditions: human, Caco-2
TrkB receptor [7] = molecular target: T2, TrkB receptor; conditions: cited from earlier work
[8] = In vivo pharmacokinetic study of 7,8-DHF, plasma and brain by HPLC-MS/MS; set-up: species or system CD-1 mice; conditions: for half-life: T1/2, plasma
[9] = chronic treatment, dose of 5 mg/kg; cited from earlier work
dentate gyrus [10] = conditions: chronic treatment; cited from earlier work
mice [11] = assay: Tail suspension test; assay type: in vivo, C57BL/6J mice; conditions: 5 mg/kg orally once a day for 21 days
mice [12] = assay: Forced swim test; assay type: in vivo, C57BL/6J mice; conditions: 5 mg/kg orally once a day for 21 days
dentate gyrus [13] = assay: Neurogenesis assay via BrdU incorporation in the dentate gyrus; assay type: in vivo, C57BL/6J mice; conditions: 5 mg/kg orally for 21 days
TrkB [14] = molecular target: T1, TrkB; assay: Immunohistochemistry staining of p-TrkB in the dentate gyrus; assay type: in vivo, mice; conditions: 5 mg/kg orally for 21 days
[15] = male, CD-1, mouse, plasma, po, 50 mg/kg
[16] = male, CD-1, mouse, plasma, po, 50 mg/kg, mice, after 7,8-DHF p.o. 50 mg/kg
[17] = mice, after 7,8-DHF p.o. 50 mg/kg

T1 sequence (P15209 32-821): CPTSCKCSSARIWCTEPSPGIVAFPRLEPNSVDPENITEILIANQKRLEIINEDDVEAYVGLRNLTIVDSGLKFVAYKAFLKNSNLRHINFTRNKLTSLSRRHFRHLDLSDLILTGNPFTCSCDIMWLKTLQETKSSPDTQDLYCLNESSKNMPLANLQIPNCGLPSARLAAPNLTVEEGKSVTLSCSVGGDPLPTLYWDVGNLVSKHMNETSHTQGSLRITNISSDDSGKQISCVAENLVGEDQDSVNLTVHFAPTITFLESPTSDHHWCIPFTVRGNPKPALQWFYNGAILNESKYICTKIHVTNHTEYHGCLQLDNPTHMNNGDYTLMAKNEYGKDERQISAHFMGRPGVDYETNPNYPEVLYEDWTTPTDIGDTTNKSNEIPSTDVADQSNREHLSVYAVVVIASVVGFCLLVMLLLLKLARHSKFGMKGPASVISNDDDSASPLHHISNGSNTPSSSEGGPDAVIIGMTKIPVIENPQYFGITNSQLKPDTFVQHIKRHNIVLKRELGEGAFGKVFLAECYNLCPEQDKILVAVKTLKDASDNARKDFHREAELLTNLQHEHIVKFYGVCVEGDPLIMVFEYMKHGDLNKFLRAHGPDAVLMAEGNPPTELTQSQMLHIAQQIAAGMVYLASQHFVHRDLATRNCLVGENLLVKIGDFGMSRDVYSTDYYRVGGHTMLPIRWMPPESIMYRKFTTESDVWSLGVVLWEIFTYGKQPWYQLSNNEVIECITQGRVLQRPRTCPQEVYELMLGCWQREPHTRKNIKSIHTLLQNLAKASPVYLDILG
T2 sequence (Q63604 32-821): as the sequence (P15209 32-821) above, with T3M, S9T, A10T, V32I, R63K, S84G, M153T, L185I, S394T, S770N counted along it

Molecule: CN(C)c1ccc(-c2cc(=O)c3ccc(O)c(O)c3o2)cc1 [4′-DMA-7,8-DHF, 4′-dimethylamino-7,8-DHF]
Comment (Caco-2 permeability) (Caco-2): poor recovery A to B | Mean A→B Papp (Caco-2): 0.9 10^−6 cm•s^−1 | Mean B→A Papp (Caco-2): 3.1 10^−6 cm•s^−1 | Efflux ratio (Caco-2; >2 indicates significant efflux activity): 3.6 | TrkB activation in mouse brain (p-TrkB Y816) (TrkB [1]): obviously activated TrkB compared to vehicle control | TrkB activation in primary neurons (p-TrkB Y816) (TrkB receptor [2]): more robust TrkB agonistic activity than 7,8-DHF; also recorded: activated TrkB receptor signaling pathways in primary neurons | immobility in FST (mice [3]; chronic treatment): robustly decreased the immobility in FST after chronic treatment | Akt activation in mouse brain (p-Akt ELISA) (Akt; 1 mg/kg oral, 2 h): potently activated Akt | p-Akt versus control in entacapone-treated and tolcapone-treated groups (ELISA) (Akt): no significant changes | TrkB activation in mouse brain (TrkB [4]): evidently activates the TrkB receptor in mouse brain

Molecule: O=c1cc(-c2ccccc2)oc2ccc(O)c(O)c12 [5,6-dihydroxyflavone]
TrkB agonistic effect (TrkB receptor [5]): but not 5,6-dihydroxyflavone or 5,7-dihydroxyflavone possess a TrkB agonistic effect

Molecule: O=c1cc(-c2ccccc2)oc2cc(O)cc(O)c12 [5,7-dihydroxyflavone]
TrkB agonistic effect (TrkB receptor [5]): but not 5,6-dihydroxyflavone or 5,7-dihydroxyflavone possess a TrkB agonistic effect

Molecule: O=c1cc(-c2cccc(O)c2)oc2cc(O)c(O)cc12 [6,7,3′-trihydroxyflavone]
TrkB agonistic effect (TrkB receptor [5]): possess a TrkB agonistic effect

Molecule: O=c1cc(-c2ccccc2)oc2cc(O)c(O)cc12 [6,7-dihydroxyflavone]
TrkB agonistic effect (TrkB receptor [5]): possess a TrkB agonistic effect

Molecule: O=c1cc(-c2ccccc2)oc2c(O)c(O)ccc12 [7,8-DHF, 7,8-Dihydroxyflavone]
Papp A→B at 2 h, 10 μmol/l [6]: 1.5 ×10⁻⁶ cm/s | Papp B→A at 2 h, 10 μmol/l [6]: 1.7 ×10⁻⁶ cm/s | efflux ratio at 2 h, 10 μmol/l [6]: 1.2 | Comment (Caco-2 permeability) (Caco-2): poor recovery A to B | concentration at which TrkB phosphorylation was prominent (TrkB receptor [7]): 100 nmol/L | TrkB activation in mouse brain (p-TrkB Y816) (TrkB [1]): clearly activated the TrkB receptor compared to vehicle control; also recorded: obviously activated TrkB compared to vehicle control | latency of immobility (mice [3]; acute injection): has no effect on the latency of immobility | immobility in FST (mice [3]; chronic treatment): robustly decreased the immobility in FST after chronic treatment | immobility in FST (mice [3]; subchronic intraperitoneal injection): significantly decreases immobility in FST | p-Akt versus control in entacapone-treated and tolcapone-treated groups (ELISA) (Akt): no significant changes | TrkB activation in mouse brain (TrkB [4]): evidently activates the TrkB receptor in mouse brain | brain concentration of parent compound relative to methylated metabolite ([8]; brain, mice, after 7,8-DHF p.o. 50 mg/kg): approximately 30 fold | Cmax ([8]; male, CD-1, mouse, brain, po, 50 mg/kg): 70 ng/mL | AUC(0-inf) [8, 15]: 125 ng·h/mL | AUC(0-t) [8, 15]: 108 ng·h/mL | Cmax [8, 15]: 70 ng/mL | Tmax [8, 15]: 0.167 h | half-life [8, 16]: ~2.23 h | brain concentration at 6 h [8, 17]: below the quantitative limit | penetration of the brain-blood barrier ([8]; mice, oral dosing of 50 mg/kg 7,8-DHF): can penetrate the brain-blood barrier | toxicity [9]: reveals no demonstrable toxicity | neurogenesis in the dentate gyrus (dentate gyrus [10]): enhances neurogenesis in the dentate gyrus

Molecule: COc1c(O)ccc2c(=O)cc(-c3ccccc3)oc12 [8-methoxy-metabolite, 7-hydroxy-8-methoxyflavone]
half-life [8, 16]: 2.47 h | earliest observation in brain [8, 17]: 3 min

B1: BDNF: Brain-derived neurotrophic factor, member of the neurotrophin family; positive control from Roche (protein, UniProt P23560 19-247, looked up)
Neurotrophic factor BDNF …: APMKEANIRGQGGLAYPGVRTHGTLESVNGPKAGSRGLTSLADTFEHVIEELLDEDQKVRPNEENNKDADLYTSRVMLSSQVPLEPPLLFLLEEYKNYLDAANMSMRVRRHSDPARRGELSVCDSISEWVTAADKKTAVDMSGGTVTVLEKVPVSKGQLKQYFYETKCNPMGYTKEGCRGIDKRHWNSQCRTTQSYVRALTMDSKKRIGWRFIRIDTSCVCTLTIKRGR
concentration eliciting TrkB activation (TrkB receptor [2]; titration assay in primary neurons): 1 to 30 nmol/L

Now from value to molecule, other results behind:

p-TrkB 706 immunoblotting in mouse brain (TrkB [1]): elicited the strongest p-TrkB signal
Molecule: COc1ccc2c(=O)cc(-c3ccccc3)oc2c1OC [D024]
TrkB activation in mouse brain (p-TrkB Y816) (TrkB [1]): elicited TrkB activation (p-TrkB Y816), but the effect was not as strong as that of the other two compounds

half-life [8, 16]: 1.53 h | earliest detection in plasma [8, 17]: 3 min | plasma concentration at 6 h [8, 17]: below the quantitative limit | detection in mouse brain at any time ([8]; mice, after 7,8-DHF p.o. 50 mg/kg, 50 mg/kg): below the limit of quantification
Molecule: COc1ccc2c(=O)cc(-c3ccccc3)oc2c1O [H428, 7-methoxy-8-hydroxyflavone]
TrkB activation in mouse brain (p-TrkB Y816) (TrkB [1]): clearly activated the TrkB receptor compared to vehicle control | immobility in TST (mice [11]): substantially decreased the immobility | TrkB activation in primary neurons (p-TrkB Y816) (TrkB receptor [2]): activates the TrkB receptor in primary neurons | immobility in FST (mice [12]): strongest effect | neurogenesis (BrdU-positive cells in the dentate gyrus) (dentate gyrus [13]): significantly promoted neurogenesis compared to vehicle | TrkB phosphorylation in the dentate gyrus (immunohistochemistry) (TrkB [14]): strongly provoked TrkB phosphorylation in the dentate gyrus

Papp A→B at 2 h, 10 μmol/l [6]: 0.3 ×10⁻⁶ cm/s | Papp B→A at 2 h, 10 μmol/l [6]: 2.9 ×10⁻⁶ cm/s | efflux ratio at 2 h, 10 μmol/l [6]: 10.9 | Comment (Caco-2 permeability) (Caco-2): low permeability, efflux
Molecule: CNC(=C[N+](=O)[O-])NCCSCc1ccc(CN(C)C)o1 [Ranitidine, reference compound]

Papp A→B at 2 h, 10 μmol/l [6]: 52.6 ×10⁻⁶ cm/s | Papp B→A at 2 h, 10 μmol/l [6]: 18.3 ×10⁻⁶ cm/s | efflux ratio at 2 h, 10 μmol/l [6]: 0.3 | Comment (Caco-2 permeability) (Caco-2): high permeability control
Molecule: CC(=O)CC(c1ccccc1)c1c(O)c2ccccc2oc1=O (centres unmarked) [Warfarin, reference compound]
